What all share (type): cell-based
Assay [1] deals with Enterobacter cloacae ATCC 13047. As to the method:
(§1) The antibacterial activity of the peptides of this invention was evaluated by determining the minimal inhibitory concentration (MIC) of bacterial growth.
(§2) Each peptide was incubated in microtitration plates, at concentrations that decreased form 320 to 0.1 micrograms/ml, in which the wells contained a final volume of 0.1 ml of Mueller-Hinton broth with 3-5x10⁴ bacteria at the semi-logarithmic growth phase.
(§3) In each experiment, the MIC of Bac5 and Bac7 were also measured, for the purpose of comparison.
(§4) In these assays, the following bacterial strains were used: Escherichia coli ATCC 25922, Salmonella typhimurium ATCC 14028, Klebsiella pneumoniae ATCC 13883 and Enterobacter cloacae ATCC 13047.

Assay [2] has as its system Klebsiella pneumoniae ATCC 13883. As to the method:
as §1, §2, §3, §4

Assay [3] concerns Salmonella typhimurium ATCC 14028. As to the method: as §1, §2, §3, §4
Assay [4] concerns Escherichia coli ATCC 25922. As to the method: as §1, §2, §3, §4
Setting [5] is: Enterobacter cloacae ATCC 13047, Mueller-Hinton broth, 3-5x10⁴ bacteria, 16 hours at 37° C.
Where [6] appears, read: Escherichia coli ATCC 25922, Mueller-Hinton broth, 3-5x10⁴ bacteria, 16 hours at 37° C.
Where [7] appears, read: Salmonella typhimurium ATCC 14028, Mueller-Hinton broth, 3-5x10⁴ bacteria, 16 hours at 37° C.
Where [8] appears, read: Klebsiella pneumoniae ATCC 13883, Mueller-Hinton broth, 3-5x10⁴ bacteria, 16 hours at 37° C.

Like-named read-outs stand apart in the source and are kept apart here. No end group written: not given here.

For “RRIRPRPPRLPRPRPRPLPFPRPGPRPIPRPLPFP [Peptide A]”, the MIC in assay [1] (ATCC 13047) is 0.15 µM; in assay [1] (setting [5]), 0.6 µg/mL; in assay [2] (ATCC 13883), 0.15 to 0.3 µM; in assay [2] (ATCC 13883, 16 h), 0.6 to 1.2 µg/mL; in assay [3] (ATCC 14028), 0.15 to 0.3 µM; in assay [3] (ATCC 14028, 16 h), 0.6 to 1.2 µg/mL. Also, the figures for the MIC in assay [4] (ATCC 25922) and in assay [4] (setting [6]) were 0.3 µM and 1.2 µg/mL, respectively.

“RRIRPRPPRLPRPRPRPL [Peptide D, Arg-Arg-Ile-Arg-Pro-Arg-Pro-Pro-Arg-Leu-Pro-Arg-Pro-Arg-Pro-Arg-Pro-Leu]”: the MIC is 0.5 to 1.0 µM in assay [1] (ATCC 13047); 1.2 to 2.5 µg/mL in assay [1] (ATCC 13047, 16 h); 0.2 to 0.5 µM in assay [2] (ATCC 13883); 0.6 to 1.2 µg/mL in assay [2] (ATCC 13883, 16 h); 0.5 µM in assay [3] (ATCC 14028); 1.2 µg/mL in assay [3] (setting [7]). Besides, the MIC in assay [4] (ATCC 25922) was determined as 1.0 µM; in assay [4] (setting [6]), 2.5 µg/mL.

As for RFRPPIRRPPIRPPFYPPFRPPIRP [Peptide C], the MIC is 0.8 to 1.6 µM in assay [1] (ATCC 13047); 2.5 to 5 µg/mL in assay [1] (ATCC 13047, 16 h); 0.8 µM in assay [2] (ATCC 13883); 2.5 µg/mL in assay [2] (setting [8]); 0.8 µM in assay [3] (ATCC 14028); 2.5 µg/mL in assay [3] (setting [7]). Moreover, the MIC was in the range of 0.8 to 1.6 µM in assay [4] (ATCC 25922) and 2.5 to 5 µg/mL in assay [4] (ATCC 25922, 16 h).

Take RRIRPRPPRLPRPRPRPLPFPRP [Peptide B]: the MIC lay in the range of 0.2 to 0.4 µM in assay [1] (Enterobacter cloacae ATCC 13047, MICs of Table 1 expressed in molar terms); 0.6 to 1.2 µg/mL in assay [1] (setting [5]); 0.2 to 0.4 µM in assay [2] (Klebsiella pneumoniae ATCC 13883, MICs of Table 1 expressed in molar terms); 0.6 to 1.2 µg/mL in assay [2] (setting [8]); 0.2 to 0.4 µM in assay [3] (Salmonella typhimurium ATCC 14028, MICs of Table 1 expressed in molar terms); 0.6 to 1.2 µg/mL in assay [3] (setting [7]). Besides, the MIC was 0.4 to 0.8 µM in assay [4] (Escherichia coli ATCC 25922, MICs of Table 1 expressed in molar terms) and 1.2 to 2.5 µg/mL in assay [4] (setting [6]).

For the origin of these results see patent EP0665239A1, “Peptide derivatives of bactenecin endowed with antibacterial activity” (CONSIGLIO NAZIONALE DELLE RICERCHE, priority 1994, dated 1995).
